{"source": "patent US9351963B2", "about": "“Defensin-like molecules as novel antimicrobial agents” (UNIVERSITY OF MARYLAND, BALTIMORE, priority 2010, dated 2016)", "key": {"[1]": {"assay": "Surface Plasmon Resonance binding to immobilized 3-Lipid II (BIAcore)", "details": "defensin mimetics at 10 μM, immobilized 3-Lipid II, 25° C.", "experimental": "Short-chain water-soluble Lipid II containing a lipid tail of three isoprene units was generated and purified essentially as described (Breukink, E., van Heusden, H. E., Vollmerhaus, P. J., Swiezewska, E., Brunner, L., Walker, S., Heck, A. J., and de Kruijff, B. (2003) J Biol Chem 278, 19898-19903). Typically, M. flavus vesicles (120 μmol lipid-Pi) were incubated together with 500 μmol UDP-GlcNAc, 500 μmol UDP-MurNAC-pentapeptide and 400 μmol farnesyl phosphate (3-P) in 100 mM Tris-HCl pH 8.0, 5 mM MgCl2. The incubation lasted two hours at room temperature for 3-P. The synthesis of 3-Lipid II was followed using RP-8 reversed phase TLC (Merck) developed in 75% methanol. For purification, the membranes were removed by centrifugation at 40,000×g and the supernatant was collected and loaded on a C18 HPLC column and eluted with a linear gradient from 50 mM ammonium bicarbonate to 100% methanol in 30 minutes. Farnesyl-Lipid II (3-Lipid II) eluted at approximately 60% methanol. Its identity was confirmed by mass spectroscopy.\nSurface Plasmon Resonance binding experiments were carried out on a BIAcore T100 system (BIAcore Inc., Piscataway, N.Y.) at 25° C. The assay buffer was 10 mM HEPES, 150 mM NaCl, 0.05% surfactant P20, pH 7.4 (±3 mM EDTA) supplemented with 10% DMSO. […] For initial determination of binding, defensin mimetics were introduced into the flow-cells (30 μl/min) in the running buffer at 10 μM. Resonance signals were corrected for nonspecific binding by subtracting the background of the control flow-cell. After each analysis, the sensor chip surfaces were regenerated with 50 mM NaOH for 30 s at a flow rate 100 μl/min, and equilibrated with the buffer prior to next injection. For binding kinetics studies, binding isotherms were analyzed with manufacturer-supplied software for BIAcore T100."}, "E. coli": {"test_system": "E. coli", "assay": "Broth microdilution MIC (CLSI, Micromyx), E. coli", "assay_type": "cell-based", "details": "Escherichia coli", "experimental": "(§1) The antibacterial activity of defensin mimetics against Staphylococcus aureus ATCC 29213 and Escherichia coli 25922 was carried out in a 96-well turbidimetric assay essentially as described (Ericksen, B., Wu, Z., Lu, W., and Lehrer, R. I. (2005) Antimicrob Agents Chemother 49, 269-275) with the following modifications: compounds were exposed for 30 min to […] prior to addition of […] in 10 mM phosphate buffer containing 5% DMSO. Bacterial growth was monitored for 12 hours and data were analyzed as described (Ericksen, et al). Determination of MICs was performed by Micromyx, LLC (Kalamazoo, Mich.) according to CLSI standards (CLSI. (2009) Methods for Dilution Antimicrobial Susceptibility Tests for Bacteria That Grow Aerobically; Approved Standard—Eighth Edition.)\nTo confirm the antibacterial killing assays, Minimal Inhibitory Concentrations (MICs, μg/ml) were determined for lead compounds against clinically relevant bacterial strains (Table 3, FIG. 11). […] Experiments were carried out according to CLSI standards (CLSI. (2009) Methods for Dilution Antimicrobial Susceptibility Tests for Bacteria That Grow Aerobically; Approved Standard—Eighth Edition.) by Micromyx, LLC (Kalamazoo, Mich.). […] There was no significant difference for any compound when evaluated against clinically relevant strains (e.g. MRSA, VRE, PRSP)."}, "[2]": {"test_system": "Escherichia coli ATCC 25922", "assay": "96-well turbidimetric antibacterial killing assay, E. coli", "assay_type": "cell-based", "details": "E. coli", "experimental": "as §1\nThe inventors have previously reported on the antibacterial activity of HNP1 and all of its structurally uncompromised single alanine mutants against S. aureus (Wei, G., Pazgier, M., de Leeuw, E., Rajabi, M., Li, J., Zou, G., Jung, G., Yuan, W., Lu, W. Y., Lehrer, R. I., and Lu, W. J Biol Chem 285, 16275-16285). […] If these residues are indeed important for Lipid II binding, one would expect that replacement by alanine will not affect killing of Gram-negative bacteria. […] In particular, FIG. 12 depicts killing of E. coli by HNP-1 Lipid II single alanine mutants. Survival curves of E. coli ATCC 25922 exposed to HNP-1 or HNP-1 single alanine mutants at concentrations varying two-fold from […]. Bacteria were exposed to defensin peptides for 120 min. Each curve is the mean of two separate experiments (±S.D.). Points scored as zero survival could not be plotted."}, "[3]": {"assay": "NMR interaction with Lipid II", "assay_type": "binding", "details": "0.15 mM Lipid II + 0.15 mM compound, d6-DMSO, 25° C.", "experimental": "The NMR samples included 0.15 mM Lipid II, 0.15 mM BAS00127538 compound, or 0.15 mM Lipid II+0.15 mM BAS00127538 compound. All samples were dissolved in 90% double distilled H20+10% DMSO, incubated for 30 minutes, freeze-dried, and then dissolved in 300 uL of d6-DMSO. NMR experiments were carried out at 25° C. on an 800 MHz Bruker Avance NMR spectrometer (800.27 MHz for protons) equipped with a pulse-field gradient unit, four frequency channels, and a triple resonance TXI cryoprobe (Bruker Biospin, Billerica, Mass.). 1D proton experiments were collected to probe for chemical shift changes and 2D TOCSY (30, 60, and 90 msec spinlock times), 2D NOESY (150 and 300 msec mixing times), and natural abundance ^13C-HSQC experiments were collected to determine proton and carbon chemical shift assignments.\nTo confirm the binding of defensins mimetic BAS00127538 to Lipid II the inventors observed by SPR, their interaction was studied directly by NMR (FIG. 7). Specifically, the inventors used 1D proton NMR spectra to determine if any chemical shift changes occur when the compound was added to 3-Lipid II. […] This Figure depicts an analysis of 2D TOCSY spectra collected at 800 MHz of the aromatic region of compound BAS00127538 alone (black) overlaid with spectra of compound bound to Lipid II (red). […]"}}}
{"compound": "CN1/C(=C/C=C/c2cc(-c3ccccc3)cc(-c3ccccc3)[o+]2)C(C)(C)c2ccccc21", "note": "[BAS00127538, 2,4-diphenyl-6-[(1E)-3-[(2E)-1,3,3-trimethyl-2,3-dihydro-1H-indol-2-ylidene]prop-1-en-1-yl]-1$1^4-pyran-1-ylium]", "values": [{"measurement": "Binding to Lipid II as measured by SPR", "setting": "[1]", "result": "most strongly bound"}, {"measurement": "MIC", "setting": "E. coli", "result": 4, "unit": "µg/mL"}, {"measurement": "Concentration at which compound was 100% bactericidal against E. coli", "setting": "[2]", "result": 7.8, "unit": "µM"}, {"measurement": "Interaction with Lipid II by NMR analysis", "setting": "[3]", "result": "found to interact"}]}
